Reference: patent US20070224297A1, “Method for increasing content of physiologically active substance in ginseng” (priority 2006, published 2007)

Assay: DPPH antioxidant (radical scavenging) test
Conditions: 1 mM; absorbance relative to control, 517 nm, 30 minutes
Method: In order to measure the antioxidant effect of the ginseng extract prepared by the method of the present invention, a DPPH (1,1-diphenyl-2-picrylhydrazyl) method was used. DPPH is a color-developed radical, and can be used to directly confirm the radical removing ability of the same. […] An absorbance was measured at 517 nm to determine the amount of the remaining DPPH. The blank of this test is distilled water or a solvent, and a control is an experimental group composed only of DPPH and distilled water without the sample. The antioxidant ability (Radical Scavenging activity: RSA) was determined by the following equation 1, compared with the absorbances of the controls, and the lowered ratios are shown in Table 2. RSA (%)=[Absorbance of Hydroxylate/Absorbance of Control]×100 [Equation 1]

O=C1O[C@H]([C@@H](O)CO)C(O)=C1O [Vitamin C]
RSA (%): 35%
